As a reminder, the IC50 is the concentration that gives 50% inhibition.

One experiment has as its system NCI-H1703 cells. As to the kind of experiment: GLS Cell Proliferation Assay (NCI-H1703 cell proliferation). The format is cell-based. Conditions: NCI-H1703 cells, 5 days; read-out: Assay c) Prolif Mean IC50. From the text: (§1) The following assays were used to measure the effects of the compounds described herein: a) GLS Enzyme Potency Assay; b) GLS Cell Potency Assay; c) GLS Cell Proliferation Assay. During the description of the assays, generally: • i. The following abbreviations have been used: CO2=Carbon dioxide; DMEM=Dulbecco's Modified Eagle Medium; DMSO=Dimethyl sulphoxide; EDTA=Ethylenediaminetetraacetic acid; EGTA=Ethylene glycol tetraacetic acid; FCS=Foetal calf serum; h=Hour(s); NBS=Non-binding surface; SDS=Sodium dodecyl sulphate; TRIS=Tris(Hydroxymethyl)aminomethane. • ii. IC50 values were calculated using a smart fitting model in Genedata.
Assay c): GLS Cell Proliferation Assay
The ability of compounds to inhibit cell growth was measured using a 384 well plate NCI-H1703 cell proliferation assay. NCI-H1703 cells were grown in phenol red free RPMI1640, 10% FCS and 2 mM glutamine and seeded at a density of 750 cells per well in 40 μl of growth medium into clear-bottom 384 well assay plates (Corning product code 3712) and incubated for 24 h at 37° C., 5% CO2. […] DMSO concentration was maintained at 0.3% by back filling with DMSO solution. Plates were incubated for 5 days at 37° C., 5% CO2, Sytox Green and Saponin added to final concentration of 2 μM and 0.25% respectively and incubated for 6 h prior to analysis. […] IC50 values were calculated by curve fitting to max inhibition of day zero growth using GeneData software analysis.

The target of the next experiment is GLS1 (Homo sapiens (Human), UniProt O94925). As to the kind of experiment: GLS Enzyme Potency Assay (Glutamate Oxidase/AmplexRed coupled assay). The class given is biochemical. The following applies: 6His tagged GLS protein (amino acids 63-669), recombinant; read-out: Assay a) enz IC50.
From the text: as §1
Assay a): GLS Enzyme Potency Assay
A Glutamate Oxidase/AmplexRed coupled assay was used to measure the ability of compounds to bind to and inhibit the activity of GLS1 in vitro. […] GLS1 was diluted to 2× working concentration and incubated at room temperature to allow the tetrameric/dimeric forms to reach steady state. Assay measurements were performed in buffer comprising 50 mM TRIS pH 7.8, 100 mM NaPO4, pH 7.8, 0.001% v/v Tween20. Purified recombinant GLS1 protein was diluted in assay buffer to 12 nM and pre-incubated at room temperature for 30 minutes. […] DMSO concentration was maintained at 2% by back filling with DMSO solution. 3 μL of diluted GLS1 protein (12 nM) was then dispensed into each well using a BioRaptr automated dispenser (Beckman-Coulter) and incubated for 15 minutes at room temperature. 3 μL of 100 mM glutamine diluted in assay buffer was then added and the reaction incubated at room temperature for 60 minutes. […] An artefact version of the assay where the 6His tagged GLS protein and glutamine were replaced with assay buffer was also used to rule out non specific effects on the assay components.

Experiment [1] has as its target cellular GLS activity in PC3 cells (Homo sapiens (Human), UniProt O94925). As to the kind of experiment: GLS Cell Potency Assay (PC3 coupled assay measuring cellular glutamate depletion). Conditions: PC3 cells, 6 h incubation, glutamate depletion; read-out: Assay b) GLS cell MOA Mean IC50. The class given is cell-based.
From the text: as §1
Assay b): GLS Cell Potency Assay
Compounds were assessed for their potential to inhibit cellular GLS activity by use of a PC3 coupled assay measuring cellular glutamate depletion. […] DMSO concentration was maintained at 0.3% by back filling with DMSO solution. PC3 cells were grown in phenol free DMEM, 10% dialyzed FCS, 2 mM glutamine and following dispersal by trypsinisation were plated at 5.6×10^3 cells per well in 40 μl of growth medium directly into the 384 well assay plates containing dispensed compound. After incubation for 6 h at 37° C., 5% CO2 growth media was aspirated and cells lysed in 15 μl of buffer containing 10 mM TRIS pH7.4, 100 mM NaCl, 1 mM EDTA, 1 mM EGTA, 1 mM NaF, 20 mM Na4P2O7, 2 mM Na3VO4, 1% Triton X-100, 10% glycerol, 0.1% SDS and 0.5% deoxycholate.

Sequence of GLS1 (O94925 63-669): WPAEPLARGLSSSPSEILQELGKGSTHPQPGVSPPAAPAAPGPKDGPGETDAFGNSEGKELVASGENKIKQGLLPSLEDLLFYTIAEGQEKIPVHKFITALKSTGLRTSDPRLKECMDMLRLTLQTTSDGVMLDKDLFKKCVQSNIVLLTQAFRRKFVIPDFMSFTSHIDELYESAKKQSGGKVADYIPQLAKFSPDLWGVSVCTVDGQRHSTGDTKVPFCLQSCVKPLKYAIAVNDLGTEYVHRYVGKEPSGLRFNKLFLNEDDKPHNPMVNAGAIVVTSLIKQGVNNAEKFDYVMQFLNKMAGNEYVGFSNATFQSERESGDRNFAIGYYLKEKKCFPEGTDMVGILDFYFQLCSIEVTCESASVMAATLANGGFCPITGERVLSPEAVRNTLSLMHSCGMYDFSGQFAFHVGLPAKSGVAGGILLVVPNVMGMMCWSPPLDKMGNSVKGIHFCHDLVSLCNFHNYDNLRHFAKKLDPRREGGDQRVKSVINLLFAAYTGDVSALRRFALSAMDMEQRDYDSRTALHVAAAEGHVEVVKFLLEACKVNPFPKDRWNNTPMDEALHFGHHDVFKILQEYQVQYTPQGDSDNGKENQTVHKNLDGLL
Sequence of cellular GLS activity in PC3 cells (O94925 73-669): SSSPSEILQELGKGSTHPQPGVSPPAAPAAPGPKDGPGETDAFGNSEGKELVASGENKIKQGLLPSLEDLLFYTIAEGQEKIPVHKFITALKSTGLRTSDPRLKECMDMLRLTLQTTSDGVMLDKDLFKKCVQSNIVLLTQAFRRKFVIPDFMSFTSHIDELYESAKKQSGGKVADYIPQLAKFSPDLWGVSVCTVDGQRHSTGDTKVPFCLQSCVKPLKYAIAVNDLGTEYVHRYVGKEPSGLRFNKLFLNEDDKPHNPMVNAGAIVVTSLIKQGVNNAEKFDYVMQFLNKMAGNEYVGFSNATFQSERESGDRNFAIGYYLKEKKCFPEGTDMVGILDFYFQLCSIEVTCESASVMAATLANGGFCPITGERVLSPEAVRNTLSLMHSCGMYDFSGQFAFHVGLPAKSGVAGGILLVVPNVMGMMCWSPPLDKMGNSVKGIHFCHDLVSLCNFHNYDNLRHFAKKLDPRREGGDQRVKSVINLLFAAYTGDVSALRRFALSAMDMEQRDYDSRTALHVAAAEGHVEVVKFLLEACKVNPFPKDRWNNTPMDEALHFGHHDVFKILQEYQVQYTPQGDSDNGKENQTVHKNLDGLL

As for `COC(C(=O)Nc1nnc(N[C@@H]2CCN(c3cccnn3)C2)s1)c1ccc(F)c(N2CC(F)(F)C2)c1` (stereo partly drawn) [Example 37, 2-[3-(3,3-difluoroazetidin-1-yl)-4-fluoro-phenyl]-2-methoxy-N-[5-[[(3R)-1-pyridazin-3-ylpyrrolidin-3-yl]amino]-1,3,4-thiadiazol-2-yl]acetamide], the values for the IC50 (with NCI-H1703 cells; on GLS1; in experiment [1]) were 21.1 nM, 147 nM and 0.556 nM, respectively.

As to `COC(C(=O)Nc1nnc(N[C@@H]2CCN(c3ccc(C)nn3)C2)s1)c1cccc(N2CC(F)(F)C2)c1` (stereo partly drawn) [Example 39, 2-[3-(3,3-difluoroazetidin-1-yl)phenyl]-2-methoxy-N-[5-[[(3R)-1-(6-methylpyridazin-3-yl)pyrrolidin-3-yl]amino]-1,3,4-thiadiazol-2-yl]acetamide], the IC50 was found to be 5.94 nM with NCI-H1703 cells, 130 nM on GLS1 and 0.405 nM in experiment [1].

Source of the values: US10323028B2, “1,3,4-thiadiazole compounds and their use in treating cancer” (AstraZeneca AB, priority 2015, dated 2019).
